Experimental data published in patent publication US20260183302A1, “PDK1 REGULATORY COMPOUND AND COMPOSITION CONTAINING THE SAME” (PROVIBIO CO., LTD., priority 2024, published 2026).

Assays:
[1] = tested on: human lung fibroblasts MRC-5; experiment: TGF-β induced Collagen I expression in MRC-5 cells (Western blot); type: cell-based; conditions: MRC-5, TGF-β (5 ng/ml), 0.5 μM and 1 μM, 24 hours
Procedure: To confirm that the compound of the present invention directly acts on fibrosis-related mechanisms, in vitro experiments were performed using human lung fibroblasts MRC-5 cell lines (Korea Cell Bank).
First, MRC-5 cells were seeded at 5×10^3 cells per well in a 6-well plate and stabilized for 24 hours.
Subsequently, experimental groups were established, including a control group, a group treated with TGF-β (5 ng/ml) alone, and groups treated with TGF-β and the compound GO88 from the present invention at concentrations of 0.5 μM and 1 μM, respectively.
After treating each group with the drugs for 24 hours, the cell medium was removed, and the cells were washed twice with cold PBS. Then, RIPA lysis buffer containing phosphatase inhibitor and protease inhibitor was added to each group to extract proteins.
The extracted proteins were incubated at 4° C. for 30 minutes, then centrifuged at 13,000 rpm for 15 minutes, and the supernatant was collected. The total protein concentration was measured using the BCA protein quantification method.
Subsequently, the proteins were separated by SDS-PAGE, transferred to a PVDF membrane, and Western blot analysis was performed.
The expression levels of Collagen I, a marker related to pulmonary fibrosis, were confirmed, with GAPDH used as an internal control.

[2] = biological target: T1, full-length PDK1 (PDK1-FL) (Homo sapiens, UniProt O15530); experiment: Binding affinity by Microscale Thermophoresis (MST), full-length PDK1; conditions: Kd full-length vs PKD fragment
T1 construct: the full-length (PDK1-FL) protein of human-derived PDK1; His tag (inferred by me from the Ni-NTA purification); made in house; host or cells: Sf9 insect cells, baculovirus
T1 sequence (O15530 1-556): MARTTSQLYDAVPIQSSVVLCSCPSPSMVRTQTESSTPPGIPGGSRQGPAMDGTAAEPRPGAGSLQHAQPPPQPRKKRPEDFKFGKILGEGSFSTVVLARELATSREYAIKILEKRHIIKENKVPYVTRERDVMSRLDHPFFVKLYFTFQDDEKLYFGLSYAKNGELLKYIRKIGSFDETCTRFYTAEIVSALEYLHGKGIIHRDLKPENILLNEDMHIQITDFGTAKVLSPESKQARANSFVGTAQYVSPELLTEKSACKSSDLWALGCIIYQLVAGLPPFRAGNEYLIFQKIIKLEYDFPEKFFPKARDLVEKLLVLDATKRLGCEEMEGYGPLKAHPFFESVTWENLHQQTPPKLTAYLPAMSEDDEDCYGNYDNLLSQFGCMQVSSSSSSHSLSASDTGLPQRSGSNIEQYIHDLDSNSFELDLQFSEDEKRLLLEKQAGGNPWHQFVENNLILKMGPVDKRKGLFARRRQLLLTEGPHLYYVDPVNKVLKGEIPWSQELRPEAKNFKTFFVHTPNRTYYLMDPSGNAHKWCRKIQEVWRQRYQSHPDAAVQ
Procedure: Microscale Thermophoresis (MST) analysis was performed to quantitatively measure the binding affinity between PDK1 protein and substrate peptides (PDKTide) or the company-developed low-molecular-weight compound (GO88).
The target proteins were the full-length (PDK1-FL) protein of human-derived PDK1 and the Protein Kinase Domain (PKD) fragment, which were expressed using a baculovirus expression system in insect cell lines (Sf9).
The purity of the purified proteins was confirmed by SDS-PAGE and Coomassie Brilliant Blue staining.
The purified protein was labeled with a fluorescent label using the Monolith NT™ RED-NHS Protein Fluorescent Labeling Kit (NanoTemper).
Specifically, 20 µM of the protein was dissolved in PBS (pH 7.4) buffer, mixed with the fluorescent reagent, and reacted at room temperature under dark conditions for 30 minutes. The mixture was then buffered with MST analysis buffer (50 mM HEPES, 150 mM NaCl, 1 mM DTT, 0.05% Tween-20, pH 7.5). […]
The reaction samples were injected into an MST-specific capillary (NanoTemper) and analyzed using a Monolith NT.115 device (NanoTemper) under laser intensity conditions. […]
The measured data were analyzed using MO. Affinity Analysis software (NanoTemper), and the dissociation constant (Kd) was calculated from the binding curve.

[3] = tested on: Human multiple myeloma, KMS34; experiment: Relative cell viability, KMS34 (CCK-8); type: cell-based; conditions: concentration 1 μM, relative to untreated cells
Procedure: After that, 10 μL of CCK-8 was added to each well, and the plate was incubated again at 37° C. in a 5% CO2 incubator for 2 hours.
(§1) In other words, when the survival rate of untreated cells (DMSO) is set at 100%, the relative cell survival rate in each group treated with the drug at different concentrations is indicated.

[4] = tested on: Human B Lymphocyte cell line, SU-DHL-8; experiment: Relative cell viability, SU-DHL-8 (CCK-8); type: cell-based; conditions: 48 hours, untreated (DMSO) = 100%
Procedure: Human-derived B lymphoma cell line SU-DHL-8 (Cat. #CRL-2961) purchased from ATCC was cultured in RPMI-1640 medium containing 10% FBS, 100 U/mL penicillin, and 100 μg/mL streptomycin.
The cell culture medium was then harvested, centrifuged at 1,300 rpm for 5 minutes, and the supernatant was removed. The cells were resuspended in the same medium and dispensed into a 96-well plate (Costar 96-well cell culture plate, Corning) at 90 μL per well, resulting in the conditions specified in Table 5.
Then, 10 μL of CCK-8 was added to each well, and the plates were incubated again at 37° C. in a 5% CO2 incubator for 4 hours.
as §1

Nc1ncccc1C(=O)NCCCCCCCCCCCCN1CCNCC1 [Compound 14, 2-Amino-N-(12-(piperazin-1-yl)dodecyl)nicotinamide]
protein expression of Collagen I [1]: inhibited in a concentration-dependent manner
binding affinity of full-length PDK1 compared to the PDK fragment [2]: approximately six times stronger

12-[4-(2,2-dimethylmorpholin-4-yl)]dodecyl-N-(6-aminopurine-2-yl) carboxamide [Compound 11]
Relative cell viability (%) [3]: 26.19%
Relative cell viability (%) ([4]; SU-DHL-8, 1 μM): 7.63%
Relative cell viability (%) ([4]; SU-DHL-8, 10 μM): 6.09%
Relative cell viability (%) ([4]; SU-DHL-8, 30 μM): 4.82%
Relative cell viability (%) ([4]; SU-DHL-8, 50 μM): 3.29%
